Data on 36 compounds can be found in patent US8987258B2 (priority 2008, dated 2015).

The assay deals with T1, SIRT1 (Homo sapiens, UniProt Q96EB6).
T1 sequence (Q96EB6 1-747): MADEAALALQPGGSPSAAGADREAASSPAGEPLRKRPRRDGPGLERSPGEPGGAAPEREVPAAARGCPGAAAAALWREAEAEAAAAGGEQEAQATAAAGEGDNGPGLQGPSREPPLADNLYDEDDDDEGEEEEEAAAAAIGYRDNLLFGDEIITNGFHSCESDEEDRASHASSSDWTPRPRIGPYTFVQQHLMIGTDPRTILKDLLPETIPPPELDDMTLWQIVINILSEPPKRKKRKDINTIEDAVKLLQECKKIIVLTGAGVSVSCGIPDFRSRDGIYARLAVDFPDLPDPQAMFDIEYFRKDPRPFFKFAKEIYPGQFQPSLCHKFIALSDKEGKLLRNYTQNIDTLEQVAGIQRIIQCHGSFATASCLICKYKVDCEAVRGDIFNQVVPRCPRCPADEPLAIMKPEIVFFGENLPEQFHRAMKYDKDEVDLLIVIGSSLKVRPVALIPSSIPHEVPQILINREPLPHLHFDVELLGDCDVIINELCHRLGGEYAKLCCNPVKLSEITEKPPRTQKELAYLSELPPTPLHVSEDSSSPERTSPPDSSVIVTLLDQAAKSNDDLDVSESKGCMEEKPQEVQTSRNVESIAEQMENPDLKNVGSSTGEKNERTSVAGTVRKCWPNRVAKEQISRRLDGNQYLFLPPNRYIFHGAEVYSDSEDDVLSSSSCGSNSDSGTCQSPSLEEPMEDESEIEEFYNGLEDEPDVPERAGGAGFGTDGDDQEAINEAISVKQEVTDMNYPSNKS
In words: Mass spectrometry based SIRT1 deacetylase activation assay. It counts as biochemical. The note with it: for EC1.5 μM: 0.5 μM peptide substrate, 120 μM βNAD+, 10 nM SIRT1, 25 min, 25° C.; for Emax: 25 min, mass spectrometry assay, read-out: % Fold Act. (percent maximum fold activation). The text has this:
A mass spectrometry based assay was used to identify modulators of SIRT1 activity. The mass spectrometry based assay utilizes a peptide having 20 amino acid residues as follows: Ac-EE-K(biotin)-GQSTSSHSK(Ac)NleSTEG-K(5TMR)-EE-NH2 (SEQ ID NO: 1) wherein K(Ac) is an acetylated lysine residue and Nle is a norleucine. The peptide is labeled with the fluorophore 5TMR (excitation 540 nm/emission 580 nm) at the C-terminus. The sequence of the peptide substrate is based on p53 with several modifications. In addition, the methionine residue naturally present in the sequence was replaced with the norleucine because the methionine may be susceptible to oxidation during synthesis and purification.
The mass spectrometry assay is conducted as follows: 0.5 μM peptide substrate and 120 μM βNAD^+ is incubated with 10 nM SIRT1 for 25 minutes at 25° C. in a reaction buffer (50 mM Tris-acetate pH 8, 137 mM NaCl, 2.7 mM KCl, 1 mM MgCl2, 5 mM DTT, 0.05% BSA). Test compounds may be added to the reaction as described above. […] After the 25 minute incubation with SIRT1, 10 μL of 10% formic acid is added to stop the reaction. Reactions are sealed and frozen for later mass spec analysis. Determination of the mass of the substrate peptide allows for precise determination of the degree of acetylation (i.e. starting material) as compared to deacetylated peptide (product).
A control for inhibition of sirtuin activity is conducted by adding 1 μL of 500 mM nicotinamide as a negative control at the start of the reaction (e.g., permits determination of maximum sirtuin inhibition). A control for activation of sirtuin activity is conducted using 10 nM of sirtuin protein, with 1 μL of DMSO in place of compound, to determine the amount of deacetylation of the substrate at a given timepoint within the linear range of the assay. This timepoint is the same as that used for test compounds and, within the linear range, the endpoint represents a change in velocity.
For the above assay, SIRT1 protein was expressed and purified as follows. […] The protein was expressed by induction with 1 mM IPTG as an N-terminal His-tag fusion protein at 18° C. overnight and harvested at 30,000×g. Cells were lysed with lysozyme in lysis buffer (50 mM Tris-HCl, 2 mM Tris[2-carboxyethyl]phosphine (TCEP), 10 μM ZnCl2, 200 mM NaCl) and further treated with sonication for 10 min for complete lysis. The protein was purified over a Ni-NTA column (Amersham) and fractions containing pure protein were pooled, concentrated and run over a sizing column (Sephadex S200 26/60 global). The peak containing soluble protein was collected and run on an Ion-exchange column (MonoQ). Gradient elution (200 mM-500 mM NaCl) yielded pure protein. This protein was concentrated and dialyzed against dialysis buffer (20 mM Tris-HCl, 2 mM TCEP) overnight. The protein was aliquoted and frozen at −80° C. until further use.

Each structure is given as a SMILES string.

`O=C(Nc1cccc2c(=O)cc(-c3ccccc3)oc12)c1cscn1` [Compound 200]: the “EC1.5 μM” value is recorded as “C (EC1.5>25 μM)” and the Emax is less than 200%.

Turning to `O=C(Nc1cccc2c(=O)cc(-c3ccccc3)oc12)c1cnccn1` [Compound 201], the “EC1.5 μM” value was “C (EC1.5>25 μM)” and the Emax is less than 200%.

For `O=C(Nc1cccc2c(=O)cc(-c3cccc(OC(F)(F)F)c3)oc12)c1cscn1` [Compound 202], the “EC1.5 μM” value is “C (EC1.5>25 μM)” and the Emax was less than 200%.

In the case of `O=C(Nc1cccc2c(=O)cc(-c3cccc(OC(F)(F)F)c3)oc12)c1cnccn1` [Compound 203], the “EC1.5 μM” value is “B (EC1.5 1-25 μM)” and the Emax is less than 200%.

As for `O=C(Nc1cccc2c(=O)cc(-c3cccc(C(F)(F)F)c3)oc12)c1cscn1` [Compound 204, N-(4-oxo-2-(3-(trifluoromethyl)phenyl)-4H-chromen-8-yl)thiazole-4-carboxamide], the “EC1.5 μM” value is “B (EC1.5 1-25 μM)” and the Emax was less than 200%.

With `O=C(Nc1cccc2c(=O)cc(-c3cccc(C(F)(F)F)c3)oc12)c1cnccn1` [Compound 205], the “EC1.5 μM” value was “C (EC1.5>25 μM)” and the Emax was less than 200%.

With `O=C(Nc1nccs1)c1cccc2c(=O)cc(-c3cccc(C(F)(F)F)c3)oc12` [Compound 206], the “EC1.5 μM” value is “C (EC1.5>25 μM)” and the Emax is less than 200%.

As for `O=C(Nc1ccccn1)c1cccc2c(=O)cc(-c3cccc(C(F)(F)F)c3)oc12` [Compound 207], the “EC1.5 μM” value is reported as “C (EC1.5>25 μM)” and the Emax is less than 200%.

With `O=C(Nc1nccs1)c1cccc2c(=O)cc(-c3cccc(N4CCOCC4)c3)oc12` [Compound 208], the “EC1.5 μM” value is on record as “C (EC1.5>25 μM)” and the Emax was less than 200%.

Take `O=C(Nc1ccccn1)c1cccc2c(=O)cc(-c3cccc(N4CCOCC4)c3)oc12` [Compound 209]: the “EC1.5 μM” value was “C (EC1.5>25 μM)” and the Emax was less than 200%.

Regarding `O=C(Nc1nccs1)c1cccc2c(=O)cc(-c3cccc(OC(F)(F)F)c3)oc12` [Compound 210], the “EC1.5 μM” value is on record as “C (EC1.5>25 μM)” and the Emax was less than 200%.

With `O=C(Nc1ccccn1)c1cccc2c(=O)cc(-c3cccc(OC(F)(F)F)c3)oc12` [Compound 211], the “EC1.5 μM” value was “C (EC1.5>25 μM)” and the Emax is less than 200%.

As for `O=C(Nc1cccc2c(=O)cc(-c3cccc(N4CCOCC4)c3)oc12)c1cscn1` [Compound 212], the “EC1.5 μM” value is on record as “B (EC1.5 1-25 μM)” and the Emax was greater than 200%.

Regarding `O=C(Nc1cccc2c(=O)cc(-c3cccc(N4CCOCC4)c3)oc12)c1ccccn1` [Compound 213], the “EC1.5 μM” value is given as “C (EC1.5>25 μM)” and the Emax is less than 200%.

Turning to `O=C(Nc1cccc2c(=O)cc(-c3cccc(N4CCOCC4)c3)oc12)c1cnccn1` [Compound 214], the “EC1.5 μM” value is reported as “B (EC1.5 1-25 μM)” and the Emax is less than 200%.

On to `O=C(Nc1cccc2c(=O)cc(-c3cccnc3)oc12)c1cscn1` [Compound 215, N-(4-oxo-2-(pyridin-3-yl)-4H-chromen-8-yl)thiazole-4-carboxamide], for which the “EC1.5 μM” value is “C (EC1.5>25 μM)” and the Emax was less than 200%.

Regarding `O=C(Nc1cccc2c(=O)cc(-c3cccnc3)oc12)c1ccccn1` [Compound 216], the “EC1.5 μM” value is on record as “C (EC1.5>25 μM)” and the Emax is less than 200%.

With `O=C(Nc1cccc2c(=O)cc(-c3cccnc3)oc12)c1cnccn1` [Compound 217], the “EC1.5 μM” value is “C (EC1.5>25 μM)” and the Emax is less than 200%.

In the case of `CS(=O)(=O)c1cccc(-c2cc(=O)c3cccc(NC(=O)c4ccccn4)c3o2)c1` [Compound 218], the “EC1.5 μM” value is given as “B (EC1.5 1-25 μM)” and the Emax is less than 200%.

Regarding `CS(=O)(=O)c1cccc(-c2cc(=O)c3cccc(NC(=O)c4cnccn4)c3o2)c1` [Compound 219], the “EC1.5 μM” value was “C (EC1.5>25 μM)” and the Emax was less than 200%.

Turning to `CS(=O)(=O)c1cccc(-c2cc(=O)c3cccc(C(=O)Nc4nccs4)c3o2)c1` [Compound 220], the “EC1.5 μM” value is on record as “C (EC1.5>25 μM)” and the Emax is less than 200%.

Take `CS(=O)(=O)c1cccc(-c2cc(=O)c3cccc(C(=O)Nc4ccccn4)c3o2)c1` [Compound 221]: the “EC1.5 μM” value is “C (EC1.5>25 μM)” and the Emax is less than 200%.

Take `CS(=O)(=O)c1cccc(-c2cc(=O)c3cccc(NC(=O)c4cscn4)c3o2)c1` [Compound 222]: the “EC1.5 μM” value was “C (EC1.5>25 μM)” and the Emax was less than 200%.

Regarding `Cc1cnc(NC(=O)c2cccc3c(=O)cc(-c4ccc(Br)cc4)oc23)s1` [Compound 223], the Emax was less than 200%.

With `O=C(Nc1cccnc1)c1cccc2c(=O)cc(-c3cccc(C(F)(F)F)c3)oc12` [Compound 224, 4-oxo-N-(pyridin-3-yl)-2-(3-(trifluoromethyl)phenyl)-4H-chromene-8-carboxamide], the “EC1.5 μM” value was “C (EC1.5>25 μM)” and the Emax is less than 200%.

In the case of `O=C(Nc1cccc2c(=O)cc(-c3cccc(C(F)(F)F)c3)oc12)c1ccccn1` [Compound 225], the “EC1.5 μM” value is reported as “C (EC1.5>25 μM)” and the Emax was less than 200%.

On to `O=C(Nc1cccc2c(=O)cc(-c3cccc(C(F)(F)F)c3)oc12)c1cccnc1` [Compound 226], for which the “EC1.5 μM” value is reported as “C (EC1.5>25 μM)” and the Emax is less than 200%.

For `O=C(Nc1cccc2c(=O)cc(-c3ccccc3C(F)(F)F)oc12)c1cscn1` [Compound 227, N-(4-oxo-2-(2-(trifluoromethyl)phenyl)-4H-chromen-8-yl)thiazole-4-carboxamide], the “EC1.5 μM” value is given as “A (EC1-5<1.0)” and the Emax was greater than 200%.

`O=C(Nc1cccc2c(=O)cc(-c3ccc(C(F)(F)F)cc3)oc12)c1cscn1` [Compound 228]: the “EC1.5 μM” value was “C (EC1.5>25 μM)” and the Emax is less than 200%.

For the compound `O=C(Nc1cccc2c(=O)cc(-c3ccc(N4CCOCC4)cc3)oc12)c1cscn1` [Compound 229], the “EC1.5 μM” value is reported as “C (EC1.5>25 μM)” and the Emax is less than 200%.

For `O=C(Nc1cccc2c(=O)cc(-c3cccc(Br)c3)oc12)c1cscn1` [Compound 230], the Emax is less than 200%.

For the compound `O=C(Nc1cccc2c(=O)cc(-c3ccccc3Br)oc12)c1cscn1` [Compound 231], the Emax was greater than 200%.

On to `O=C(Nc1cccc2c(=O)cc(-c3ccc(Br)cc3)oc12)c1cscn1` [Compound 232], for which the Emax was less than 200%.

For the compound `O=C(Nc1cccc2c(=O)cc(-c3ccc(OC(F)(F)F)cc3)oc12)c1cnccn1` [Compound 233], the “EC1.5 μM” value is on record as “C (EC1.5>25 μM)” and the Emax was less than 200%.

With `O=C(Nc1cccc2c(=O)cc(-c3ccccc3OC(F)(F)F)oc12)c1cnccn1` [Compound 234], the “EC1.5 μM” value is “A (EC1-5<1.0)” and the Emax is greater than 200%.

`Cc1cnc(NC(=O)c2cccc3c(=O)cc(-c4cccc(C(F)(F)F)c4)oc23)s1` [Compound 235]: the “EC1.5 μM” value is “C (EC1.5>25 μM)” and the Emax is less than 200%.
